Reference: PMC4848510, “Foldamer-mediated manipulation of a pre-amyloid toxin” (Nature Communications, 2016)

Key:
INS-1 cells = assay: Rescue of INS-1 cells from IAPP-induced toxicity (CellTiter Blue); conditions: 13 μM IAPP; for rescue of IAPP-induced toxicity, co-addition: small molecule co-added 1:1, 48 h, n=24
Method: Cells were passaged on reaching ∼95% confluence (0.25% Trypsin-EDTA, Life Technologies), propagated and/or used in experiments. Cells used in experiments were pelleted and resuspended in fresh media with no Trypsin-EDTA.
Cell viability was measured colourimetrically using the CellTiter Blue (CTB, Promega, Madison, WI, USA) fluorescence-based assay. Cells were plated at a density 5,000 cells per well in 96-well plates (BD Biosciences, San Diego, CA). Peptide was directly introduced to each well after 48 h of culture and then further incubated for an additional 48 h. For time-dependent experiments, cells were incubated with peptide for the specified time points. After the incubation period, 20-μl CellTiter Blue reagent was added to each well and incubated at 37 °C and 5% CO2 for 2.5–3.5 h. Fluorescence of the resorufin product was measured on a FluoDia T70 fluorescence plate reader (Photon Technology International, Birmingham, NJ, USA). All wells included the same amount of water to account for different concentrations of peptide added to sample wells. Wells that included water vehicle but not peptide served as the negative control (0% toxic), and wells containing 10% DMSO were the positive control (100% toxic). Per cent toxicity was calculated using the following equation:
Each independent variable is the average of eight plate replicates from the negative control (<N>), positive control (<P>) and samples (<S>). Results presented for viability experiments are an average of three such experiments conducted independently on different days. Error bars represent the s.e.m.

IAPP = molecular target: T1, IAPP (Homo sapiens, UniProt P10997); assay: LUV-catalysed IAPP fibre formation kinetic assay (ThT fluorescence); type: biochemical; conditions: 10 μM IAPP, 1:1 IAPP:small molecule, 630 μM LUVs DOPG:DOPC 1:1; ND = no kinetics over time of observation
T1 construct: IAPP is a 37-residue peptide co-packaged with insulin in pancreatic β-cells; purchased Genscript; Elim Biopharmaceuticals
T1 sequence (P10997 34-70 limits assumed): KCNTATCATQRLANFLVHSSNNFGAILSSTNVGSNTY
Method: Unless otherwise stated, LUVs used in this work were prepared from a 1:1 mixture of DOPG/DOPC. The lyophilized mixture was hydrated in 100 mM KCl, 50 mM sodium phosphate and pH 7.4 for 20 min. A 20mg ml^−1 solution of lipid in buffer was passed 21 times through a polycarbonate membrane (pore diameter=100 nm). The phospholipid content of the final material was measured using a total phosphorous assay.
(§1) Amyloid reactions were conducted in buffer containing liposome (630 μM lipid) and 20 μM ThT in a black 96-well plate. This was followed by the addition of small molecule dissolved in dimethylsulphoxide (DMSO; final DMSO concentration=0.5%, v/v). Fibre formation was initiated by the addition of IAPP stock solution. The final volume in each well was 200 μl. Kinetics of fibrillation was monitored by ThT fluorescence (excitation 450 nm and emission 485 nm), using a FluoDia T70 fluorescence plate reader (Photon Technology International, Edison, NJ, USA). The data were blank subtracted and renormalized to the maximum intensity of reactions containing only IAPP. Each kinetic trace was fit to a sigmoidal form:
(§2) where I is the fluorescence intensity, t is time, and b, m and τ are dependent fitting variables. All samples were run at least in triplicate and error bars shown in the text represent ±1 s.d.

[1] = test system: Src and its homologue, Abl; conditions: cited from earlier work
Text: Dynamic binding modes, such as conformational selection, are often observed in protein:ligand interactions. A recent example is the anti-cancer drug Gleevec[8]. Gleevec binds to structurally identical sites in Src and its homologue, Abl. […] It stands to reason that the internal degrees of freedom of ligands should be similarly exploitable. However, ligand dynamics are viewed unfavourably as a result of entropy loss on binding. The non-covalent and reversible stabili ...

[2] = IAPP fibre formation in solution without LUVs (ThT); type: physicochemical, human; conditions: 10 μM IAPP, no LUVs, at least triplicate, ±1 s.d.
Method: as §1, with “form: […]” for “form:”
as §2
Supplementary Figure 1: Kinetic profiles of IAPP self-assembly. a, Three representative kinetic profiles for a standard reaction of 10 µM IAPP catalysed by the presence of 630 µM LUVs (DOPG:DOPC, 1:1, 100 nm) (inset) A representative sigmoid fit (magenta) used to extract reaction midpoints, t50. b, Representative comparison of the kinetic profiles of (10 µM) IAPP fibrillation in the absence (black) and presence (red) of 630 µM LUVs. […]

Compound | rescue of IAPP-induced toxicity, co-addition (INS-1 cells) | t50 / (t50 IAPP only), inhibition of LUV-catalysed fibre formation (IAPP) | difference in binding affinity between Src and Abl [1] | reaction midpoint t50 of IAPP assembly into fibres in solution [2] [h] | decrease of INS-1 viability (INS-1 cells; 48 h incubation) [%]
O=C(O[C@@H]1Cc2c(O)cc(O)cc2O[C@@H]1c1cc(O)c(O)c(O)c1)c1cc(O)c(O)c(O)c1 [EGCG, epigallocatechin gallate] | ineffective in rescuing toxicity | no detectable effect |  |  | 
Cc1ccc(NC(=O)c2ccc(CN3CCN(C)CC3)cc2)cc1Nc1nccc(-c2cccnc2)n1 [Gleevec] |  |  | > 1,000 fold |  | 
CC[C@H](C)[C@H](NC(=O)[C@H](C)NC(=O)CNC(=O)[C@H](Cc1ccccc1)NC(=O)[C@H](CC(N)=O)NC(=O)[C@H](CC(N)=O)NC(=O)[C@H](CO)NC(=O)[C@H](CO)NC(=O)[C@H](Cc1c[nH]cn1)NC(=O)[C@@H](NC(=O)[C@H](CC(C)C)NC(=O)[C@H](Cc1ccccc1)NC(=O)[C@H](CC(N)=O)NC(=O)[C@H](C)NC(=O)[C@H](CC(C)C)NC(=O)[C@H](CCCNC(=N)N)NC(=O)[C@H](CCC(N)=O)NC(=O)[C@@H](NC(=O)[C@H](C)NC(=O)[C@@H]1CSSC[C@H](NC(=O)[C@@H](N)CCCCN)C(=O)N[C@@H](CC(N)=O)C(=O)N[C@@H]([C@@H](C)O)C(=O)N[C@@H](C)C(=O)N[C@@H]([C@@H](C)O)C(=O)N1)[C@@H](C)O)C(C)C)C(=O)N[C@@H](CC(C)C)C(=O)N[C@@H](CO)C(=O)N[C@@H](CO)C(=O)N[C@H](C(=O)N[C@@H](CC(N)=O)C(=O)N[C@H](C(=O)NCC(=O)N[C@@H](CO)C(=O)N[C@@H](CC(N)=O)C(=O)N[C@H](C(=O)N[C@@H](Cc1ccc(O)cc1)C(N)=O)[C@@H](C)O)C(C)C)[C@@H](C)O [IAPP] |  |  |  | 18 ± 1.4 | 78±8
Oc1ccc(/C=C/c2cc(O)cc(O)c2)cc1 [resveratrol] | ineffective in rescuing toxicity | no detectable effect |  |  | 
acid fuchsin | ineffective in rescuing toxicity | no detectable effect |  |  | 
